The target of the test is T1, Recombinant mouse PD-L1 (Mus musculus, UniProt Q9EP73).
T1 construct: Fc (Fc chimera); purchased R&D Systems 1019-B7-100
The experiment in a line: Rescue of mouse splenocyte proliferation in the presence of recombinant PD-L1/PD-L2 (CFSE proliferation assay). It is filed as cell-based. The settings on record: 100 nM compound; anti-CD3/CD28 stimulated mouse splenocytes + PD-L1; 72 h; normalised to stimulated splenocyte proliferation as 100%; read-out: Percent rescue of splenocyte proliferation (@100 nM compound concentration). As to the method: Rescue of Mouse Splenocyte Proliferation in the Presence of Recombinant PD-L1/PD-L2:
Recombinant mouse PD-L1 (rm-PDL-1, cat no: 1019-B7-100 and R&D Systems) were used as the source of PD-L1.
Mouse splenocytes harvested from 6-8 weeks old C57 BL6 mice; RPMI 1640 (GIBCO, Cat #11875); DMEM with high glucose (GIBCO, Cat # D6429); Fetal Bovine Serum [Hyclone, Cat # SH30071.03]; Penicillin (10000 unit/ml)-Streptomycin (10,000 μg/ml) Liquid (GIBCO, Cat #15140-122); MEM Sodium Pyruvate solution 100 mM (100×), Liquid (GIBCO, Cat #11360); Nonessential amino acid (GIBCO, Cat #11140); L-Glutamine (GIBCO, Cat #25030); Anti-CD3 antibody (eBiosciences—16-0032); Anti-CD28 antibody (eBiosciences—16-0281); ACK lysis buffer (1 mL) (GIBCO, Cat #-A10492); Histopaque (density—1.083 gm/mL) (SIGMA 10831); Trypan blue solution (SIGMA-T8154); 2 mL Norm Ject Luer Lock syringe-(Sigma 2014-12); 40 μM nylon cell strainer (BD FALCON 35230); Hemacytometer (Bright line-SIGMA Z359629); FACS Buffer (PBS/0.1% BSA): Phosphate Buffered Saline (PBS) pH 7.2 (HiMedia TS1006) with 0.1% Bovine Serum Albumin (BSA) (SIGMA A7050) and sodium azide (SIGMA 08591); 5 mM stock solution of CFSE: CFSE stock solution was prepared by diluting lyophilized CFSE with 180 μL of Dimethyl sulfoxide (DMSO C2H6SO, SIGMA-D-5879) and aliquoted in to tubes for further use. Working concentrations were titrated from 10 μM to 1 μM. (eBioscience-650850-85); 0.05% Trypsin and 0.02% EDTA (SIGMA 59417C); 96-well format ELISA plates (Corning CLS3390); BD FACS caliber (E6016); Recombinant mouse B7-H1/PDL1 Fc Chimera, (rm-PD-L1 cat no: 1019-B7-100).
Splenocytes harvested in a 50 mL falcon tube by mashing mouse spleen in a 40 μm cell strainer were further treated with 1 mL ACK lysis buffer for 5 min at room temperature. After washing with 9 mL of RPMI complete media, cells were re-suspended in 3 mL of 1×PBS in a 15 mL tube. 3 mL of Histopaque was added carefully to the bottom of the tube without disturbing overlaying splenocyte suspension. After centrifuging at 800×g for 20 min at room temperature, the opaque layer of splenocytes was collected carefully without disturbing/mixing the layers. Splenocytes were washed twice with cold 1×PBS followed by total cell counting using Trypan Blue exclusion method and used further for cell based assays.
Splenocytes were cultured in RPMI complete media (RPMI+10% fetal bovine serum+1 mM sodium pyruvate+10,000 units/ml penicillin and 10,000 μg/ml streptomycin) and maintained in a CO2 incubator with 5% CO2 at 37° C.
CFSE is a dye that passively diffuses into cells and binds to intracellular proteins. 1×10^6 cells/mL of harvested splenocytes were treated with 5 μM of CFSE in pre-warmed 1×PBS/0.1% BSA solution for 10 min at 37° C. Excess CFSE was quenched using 5 volumes of ice-cold culture media to the cells and incubated on ice for 5 min. CFSE labelled splenocytes were further given three washes with ice cold complete RPMI media. CFSE labelled 1×10^5 splenocytes added to wells containing either MDA-MB231 cells (1×10^5 cells cultured in high glucose DMEM medium) or recombinant […] PDL-1 (100 ng/mL) and test compounds. Splenocytes were stimulated with anti-mouse CD3 and anti-mouse CD28 antibody (1 μg/mL each), and the culture was further incubated for 72 h at 37° C. with 5% CO2. Cells were harvested and washed thrice with ice cold FACS buffer and % proliferation was analyzed by flow cytometry with 488 nm excitation and 521 nm emission filters.
Percent splenocyte proliferation was analyzed using cell quest FACS program and percent rescue of splenocyte proliferation by compound was estimated after deduction of % background proliferation value and normalising to % stimulated splenocyte proliferation (positive control) as 100%.
Stimulated splenocytes: Splenocytes+anti-CD3/CD28 stimulation
Background proliferation: Splenocytes+anti-CD3/CD28+PD-L1
Compound proliferation: Splenocytes+anti-CD3/CD28+PD-L1+Compound […]

SMILES strings stand for the structures.

T1 sequence (Q9EP73 with tags, fused parts or gaps limits assumed): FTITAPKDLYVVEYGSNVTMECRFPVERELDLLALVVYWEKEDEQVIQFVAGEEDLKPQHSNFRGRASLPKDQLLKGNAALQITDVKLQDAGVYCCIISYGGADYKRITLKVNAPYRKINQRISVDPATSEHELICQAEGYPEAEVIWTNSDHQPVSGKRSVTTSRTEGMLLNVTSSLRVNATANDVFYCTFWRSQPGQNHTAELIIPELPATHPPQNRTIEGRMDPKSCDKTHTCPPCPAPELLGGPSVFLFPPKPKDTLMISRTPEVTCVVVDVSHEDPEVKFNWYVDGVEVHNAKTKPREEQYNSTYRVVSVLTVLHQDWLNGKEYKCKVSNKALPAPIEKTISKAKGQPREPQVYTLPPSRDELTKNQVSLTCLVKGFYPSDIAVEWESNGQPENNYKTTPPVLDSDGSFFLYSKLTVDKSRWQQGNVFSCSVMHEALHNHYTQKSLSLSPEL

As for `CC(O)[C@H](NC(=O)N[C@@H](C)c1nnc([C@@H](N)CO)o1)C(=O)O` (stereo partly shown) [Compound 1], the activation at 0.1 µM came to 61.2%. The result for `CC(O)[C@H](NC(=O)N[C@@H](CC(N)=O)c1nnc([C@@H](N)CO)o1)C(=O)O` (stereo partly shown) [Compound 2] reads 80.3%; that for `NC(=O)C[C@H](N)c1nnc([C@@H](N)CO)s1` [Compound 3], 48.4%; that for `CC(O)[C@H](NC(=O)N[C@@H](CC(N)=O)c1nnc([C@@H](N)CO)s1)C(=O)O` (stereo partly shown) [Compound 4], 60%. Consider `CC(O)[C@H](NC(=O)N[C@@H](CC(N)=O)c1nnc([C@@H](N)C(C)O)o1)C(=O)O` (stereo partly shown) [Compound 9], for which the activation at 0.1 µM worked out at 74%.

`CC(O)[C@H](N)c1nnc([C@H](CC(N)=O)NC(=O)N[C@@H](CO)C(=O)O)o1` (stereo partly shown) [Compound 10]: the activation at 0.1 µM amounted to 58%. The same measure for `CC(O)[C@H](N)c1nnc([C@H](CCC(N)=O)NC(=O)N[C@@H](CO)C(=O)O)o1` (stereo partly shown) [Compound 12]: 92%; for `CC(O)[C@H](NC(=O)N[C@@H](CCC(N)=O)c1nnc([C@@H](N)C(C)O)o1)C(=O)O` (stereo partly shown) [Compound 13]: 75%. The same measure for `NC(=O)C[C@H](NC(=O)N[C@@H](CO)C(=O)O)c1nnc([C@@H](N)CO)o1` [Compound 14]: 53%; for `CC(O)[C@H](NC(=O)N[C@@H](CCC(=O)O)c1nnc([C@@H](N)CO)o1)C(=O)O` (stereo partly shown) [Compound 15]: 69%. As for `CC(O)[C@H](NC(=O)N[C@@H](CCC(N)=O)c1nnc([C@@H](N)CO)o1)C(=O)O` (stereo partly shown) [Compound 16], the activation at 0.1 µM is 56%. Regarding `NC(=O)CC[C@H](NC(=O)N[C@@H](CO)C(=O)O)c1nnc([C@@H](N)CO)o1` [Compound 17], the activation at 0.1 µM was 53%. The result for `CC(O)[C@H](NC(=O)N[C@@H](CC(=O)O)c1nnc([C@@H](N)CO)o1)C(=O)O` (stereo partly shown) [Compound 18] reads 68%.

Source of the values: US10160736B2, “1,3,4-oxadiazole and 1,3,4-thiadiazole derivatives as immunomodulators” (Aurigene Discovery Technologies Limited, priority 2013, dated 2018).
